Assay results: the NIST ThermoML archive (doi:10.1016/j.jct.2013.08.030)
± gives the expanded uncertainty stated by the source.

How the values were obtained:
[1] = 101.33 kPa, Liquid, Vibrating tube method
[2] = activity coefficient (dimensionless); of the first substance listed, at infinite dilution; xn = mol fraction of the nth substance listed; conditions: 101 kPa, Liquid, Chromatography, x1 = 0

Row | Compound | mass density ([1]; 288.15 K) [kg/m3] | mass density ([1]; 298.15 K) [kg/m3] | mass density ([1]; 308.15 K) [kg/m3] | mass density ([1]; 318.15 K) [kg/m3] | mass density ([1]; 328.15 K) [kg/m3] | mass density ([1]; 338.15 K) [kg/m3] | mass density ([1]; 348.15 K) [kg/m3] | mass density ([1]; 358.15 K) [kg/m3] | mass density ([1]; 368.15 K) [kg/m3] | activity coefficient ([2]; 318.15 K) | activity coefficient ([2]; 328.15 K) | activity coefficient ([2]; 338.15 K) | activity coefficient ([2]; 348.15 K) | activity coefficient ([2]; 358.15 K) | activity coefficient ([2]; 368.15 K)
1 | CCCC[N+]1(C)CCOCC1.N#C[C-](C#N)C#N [4-butyl-4-methylmorpholinium tricyanomethanide] | 1073.6 ± 2.2 | 1067.03 ± 2.2 | 1060.79 ± 2.2 | 1054.69 ± 2.2 | 1048.61 ± 2.1 | 1042.61 ± 2.1 | 1036.67 ± 2.1 | 1030.77 ± 2.1 | 1024.3 ± 2.1 | – | – | – | – | – | –
2 | CC(C)CC(C)(C)C [2,2,4-trimethylpentane] + CCCC[N+]1(C)CCOCC1.N#C[C-](C#N)C#N | – | – | – | – | – | – | – | – | – | 103 ± 7 | 93.4 ± 6.4 | 84.2 ± 5.8 | 76.9 ± 5.3 | 70.8 ± 4.9 | 64.5 ± 4.4
3 | C=CCCCCC [1-heptene] + CCCC[N+]1(C)CCOCC1.N#C[C-](C#N)C#N | – | – | – | – | – | – | – | – | – | 34.1 ± 2.3 | 32 ± 2.2 | 30.2 ± 2.1 | 28.7 ± 2 | 27.2 ± 1.9 | 25.7 ± 1.8
4 | CCCCCCCCC [nonane] + CCCC[N+]1(C)CCOCC1.N#C[C-](C#N)C#N | – | – | – | – | – | – | – | – | – | 187 ± 13 | 168 ± 12 | 151 ± 10 | 137 ± 9 | 126 ± 9 | 115 ± 8
5 | CC(C)CO [2-methyl-1-propanol] + CCCC[N+]1(C)CCOCC1.N#C[C-](C#N)C#N | – | – | – | – | – | – | – | – | – | 2.19 ± 0.15 | 2.03 ± 0.14 | 1.87 ± 0.13 | 1.74 ± 0.12 | 1.65 ± 0.11 | 1.56 ± 0.1
6 | CCOCC [diethyl ether] + CCCC[N+]1(C)CCOCC1.N#C[C-](C#N)C#N | – | – | – | – | – | – | – | – | – | 5.39 ± 0.37 | 5.33 ± 0.36 | 5.27 ± 0.36 | 5.24 ± 0.36 | 5.21 ± 0.36 | 5.16 ± 0.35
7 | C1=CCCCC1 [cyclohexene] + CCCC[N+]1(C)CCOCC1.N#C[C-](C#N)C#N | – | – | – | – | – | – | – | – | – | 9.44 ± 0.64 | 9.08 ± 0.62 | 8.71 ± 0.59 | 8.46 ± 0.58 | 8.16 ± 0.56 | 7.92 ± 0.54
8 | CCOC(C)(C)C [2-ethoxy-2-methylpropane] + CCCC[N+]1(C)CCOCC1.N#C[C-](C#N)C#N | – | – | – | – | – | – | – | – | – | 16.8 ± 1.1 | 16.2 ± 1.1 | 15.6 ± 1.1 | 15.3 ± 1 | 14.9 ± 1 | 14.6 ± 1
9 | CC1CCCCC1 [methylcyclohexane] + CCCC[N+]1(C)CCOCC1.N#C[C-](C#N)C#N | – | – | – | – | – | – | – | – | – | 35.2 ± 2.4 | 32.3 ± 2.2 | 29.7 ± 2 | 27.6 ± 1.9 | 25.7 ± 1.8 | 24 ± 1.6
10 | C=CCCCCCCCC [1-decene] + CCCC[N+]1(C)CCOCC1.N#C[C-](C#N)C#N | – | – | – | – | – | – | – | – | – | 118 ± 8 | 110 ± 8 | 101 ± 7 | 94.5 ± 6.5 | 87.8 ± 6 | 81.4 ± 5.6
11 | Cc1cccc(C)c1 [1,3-dimethylbenzene] + CCCC[N+]1(C)CCOCC1.N#C[C-](C#N)C#N | – | – | – | – | – | – | – | – | – | 3.54 ± 0.24 | 3.56 ± 0.24 | 3.61 ± 0.25 | 3.61 ± 0.25 | 3.62 ± 0.25 | 3.62 ± 0.25
12 | COC(C)(C)C [2-methoxy-2-methylpropane] + CCCC[N+]1(C)CCOCC1.N#C[C-](C#N)C#N | – | – | – | – | – | – | – | – | – | 5.74 ± 0.39 | 5.77 ± 0.39 | 5.74 ± 0.39 | 5.76 ± 0.39 | 5.77 ± 0.39 | 5.78 ± 0.39
13 | CCC(C)O (stereo not drawn) [butan-2-ol] + CCCC[N+]1(C)CCOCC1.N#C[C-](C#N)C#N | – | – | – | – | – | – | – | – | – | 2.05 ± 0.14 | 1.93 ± 0.13 | 1.81 ± 0.12 | 1.71 ± 0.11 | 1.64 ± 0.11 | 1.58 ± 0.1
14 | C=Cc1ccccc1 [styrene] + CCCC[N+]1(C)CCOCC1.N#C[C-](C#N)C#N | – | – | – | – | – | – | – | – | – | 1.82 ± 0.12 | 1.86 ± 0.13 | 1.9 ± 0.13 | 1.93 ± 0.13 | 1.96 ± 0.13 | 1.99 ± 0.14
15 | CCC(C)(C)OC [2-methoxy-2-methylbutane] + CCCC[N+]1(C)CCOCC1.N#C[C-](C#N)C#N | – | – | – | – | – | – | – | – | – | 8.61 ± 0.59 | 8.52 ± 0.58 | 8.42 ± 0.57 | 8.37 ± 0.57 | 8.29 ± 0.57 | 8.21 ± 0.56
16 | CO [methanol] + CCCC[N+]1(C)CCOCC1.N#C[C-](C#N)C#N | – | – | – | – | – | – | – | – | – | 0.825 ± 0.053 | 0.79 ± 0.051 | 0.762 ± 0.05 | 0.729 ± 0.048 | 0.704 ± 0.047 | 0.677 ± 0.046
17 | C1CCCCCC1 [cycloheptane] + CCCC[N+]1(C)CCOCC1.N#C[C-](C#N)C#N | – | – | – | – | – | – | – | – | – | 28.1 ± 1.9 | 26 ± 1.8 | 24 ± 1.6 | 22.5 ± 1.5 | 21 ± 1.4 | 19.7 ± 1.3
18 | CCCCCCCCCC [decane] + CCCC[N+]1(C)CCOCC1.N#C[C-](C#N)C#N | – | – | – | – | – | – | – | – | – | 289 ± 20 | 251 ± 17 | 224 ± 15 | 202 ± 14 | 183 ± 13 | 166 ± 11
19 | C1CCOC1 [tetrahydrofuran] + CCCC[N+]1(C)CCOCC1.N#C[C-](C#N)C#N | – | – | – | – | – | – | – | – | – | 1.12 ± 0.07 | 1.15 ± 0.07 | 1.17 ± 0.07 | 1.18 ± 0.08 | 1.21 ± 0.08 | 1.22 ± 0.08
20 | C=CCCCC [hex-1-ene] + CCCC[N+]1(C)CCOCC1.N#C[C-](C#N)C#N | – | – | – | – | – | – | – | – | – | 22.6 ± 1.5 | 21.3 ± 1.5 | 20 ± 1.4 | 19.1 ± 1.3 | 18.2 ± 1.2 | 17.4 ± 1.2
21 | Cc1ccc(C)cc1 [1,4-dimethylbenzene] + CCCC[N+]1(C)CCOCC1.N#C[C-](C#N)C#N | – | – | – | – | – | – | – | – | – | 3.49 ± 0.24 | 3.52 ± 0.24 | 3.54 ± 0.24 | 3.57 ± 0.24 | 3.59 ± 0.24 | 3.63 ± 0.25
22 | c1ccccc1 [benzene] + CCCC[N+]1(C)CCOCC1.N#C[C-](C#N)C#N | – | – | – | – | – | – | – | – | – | 1.53 ± 0.1 | 1.55 ± 0.1 | 1.57 ± 0.1 | 1.58 ± 0.1 | 1.61 ± 0.11 | 1.62 ± 0.11
23 | CC(C)O [propan-2-ol] + CCCC[N+]1(C)CCOCC1.N#C[C-](C#N)C#N | – | – | – | – | – | – | – | – | – | 1.71 ± 0.11 | 1.59 ± 0.11 | 1.5 ± 0.1 | 1.4 ± 0.09 | 1.33 ± 0.09 | 1.25 ± 0.08
24 | CCC(=O)CC [pentan-3-one] + CCCC[N+]1(C)CCOCC1.N#C[C-](C#N)C#N | – | – | – | – | – | – | – | – | – | 1.42 ± 0.09 | 1.44 ± 0.09 | 1.47 ± 0.1 | 1.49 ± 0.1 | 1.51 ± 0.1 | 1.54 ± 0.1
25 | C#CCCCCCC [1-octyne] + CCCC[N+]1(C)CCOCC1.N#C[C-](C#N)C#N | – | – | – | – | – | – | – | – | – | 12.8 ± 0.9 | 12.6 ± 0.9 | 12.4 ± 0.8 | 12.2 ± 0.8 | 12 ± 0.8 | 11.8 ± 0.8
